Measured values published in patent EP4678638A1, “NEW E3 UBIQUITIN LIGASE LIGAND, PROTEIN DEGRADATION AGENT AND USE THEREOF” (priority 2023, dated 2024).
Like-named read-outs stand apart in the source and are kept apart here.

What was measured:
Jurkat = assay: CCK-8 proliferation, Jurkat; format: cell-based, Human; settings: Homo sapiens; Table B10, compounds designed based on the IRAK4 inhibitors; Jurkat cells; read-out: Inhibitory activity (IC50, nM) on tumor cell proliferation, Jurkat
Procedure, shortened: (§1)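 Cells seeded, then after 24 h treated with 10 concentrations (top 10 µM, 5-fold serial dilution) for a line-specific time at 37°C, 5% CO2. Viability read by CCK-8; IC50 fitted from growth-inhibition curves.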

H1299 = assay: CCK-8 proliferation, H1299; design: species or system Human; settings: Homo sapiens, NCI-H1299; Table B10, compounds designed based on the IRAK4 inhibitors; H1299 cells; read-out: Inhibitory activity (IC50, nM) on tumor cell proliferation, H1299
Experimental: (§2) The tumor cells used herein were cultured in a cell culture medium listed in table A1 at 37°C in an incubator with 5% CO2. Prior to experimentation, all cell lines used were correctly identified by STR profiling, and tested negative for mycoplasma contamination using a mycoplasma detection kit through routine screenings. Table A1. Tumor cells and cell culture medium used in the present disclosure
(§3) IC50 values of the compounds of the present disclosure (including the compounds in Table 1, and compounds of examples) were measured using the Meilun Cell Counting Kit-8 kit from Dalian Meilun Biotech Co., Ltd. Assay details are as follows: tumor cells were seeded in a 96-well plate at a density listed in Table A2. After 24h, 100 µL of the inoculated cells were treated with 0.5µL of the compounds of the present disclosure (including the compounds in Tables 1 and 2, and compounds of examples) at 10 different successively decreasing concentrations (starting at the highest concentration of 10µM; 5-fold serial dilutions). After the cells were treated with the compounds of the present disclosure for a period of time, the cell viability detection reagent was added to the culture medium for cell viability assessment according to the instructions provided with the CCK-8 kit. […] The growth inhibition of the compounds of the present disclosure on cells was plotted by Prism Graphpad software, and the IC50 values of the compounds of the present disclosure were calculated therefrom. […] Seeding protocol and treatment time for tumor cells

LNcap = assay: CCK-8 proliferation, LNcap; format: cell-based; settings: Homo sapiens; Table B10, compounds designed based on the IRAK4 inhibitors; Lncap cells; read-out: Inhibitory activity (IC50, nM) on tumor cell proliferation, Lncap
Experimental: as §2, §3

MM.1S = assay: CCK-8 proliferation, MM.1S; format: cell-based; settings: Homo sapiens, MM1.S; Table B10, compounds designed based on the IRAK4 inhibitors; MM.1S cells; read-out: Inhibitory activity (IC50, nM) on tumor cell proliferation, MM.1S
Procedure, shortened: as §1

MGC-803 = assay: CCK-8 proliferation, MGC-803 (heads: MGC80-3, MGC803); format: cell-based, Human; settings: Homo sapiens, MGC-803
Experimental: as §2, §3

SR = assay: CCK-8 proliferation, SR; format: cell-based, Human; settings: Homo sapiens; Table B10, compounds designed based on the IRAK4 inhibitors; SR cells; read-out: Inhibitory activity (IC50, nM) on tumor cell proliferation, SR
Procedure, shortened: as §1

CCRF-CEM = assay: CCK-8 proliferation, CCRF-CEM; format: cell-based, Human; settings: Homo sapiens
Procedure, shortened: as §1

SW620 = assay: CCK-8 proliferation, SW620; format: cell-based; settings: Homo sapiens, SW-620; CCK-8; 96 hours; read-out: Inhibitory activity (IC50) on tumor cell proliferation, SW620
Procedure, shortened: as §1

BXPC-3 = assay: CCK-8 proliferation, BXPC-3; format: cell-based; settings: Homo sapiens, 96 hours, read-out: Inhibitory activity (IC50) on tumor cell proliferation, BXPC-3
Experimental: as §2, §3

THP-1 = assay: CCK-8 proliferation, THP-1; format: cell-based; settings: Homo sapiens, 72 hours, read-out: Inhibitory activity (IC50) on tumor cell proliferation, THP-1
Experimental: as §2, §3

IRAK4 = target: T1, IRAK4 (Homo sapiens, UniProt Q9NWZ3); assay: Western blot degradation of IRAK4 (hPBMC); format: cell-based; settings: Table D1
T1 construct: evaluate the effects of the compounds of the present disclosure on the expression of target proteins in cells; endogenous in cells; host or cells: hPBMC
T1 sequence (Q9NWZ3 1-460): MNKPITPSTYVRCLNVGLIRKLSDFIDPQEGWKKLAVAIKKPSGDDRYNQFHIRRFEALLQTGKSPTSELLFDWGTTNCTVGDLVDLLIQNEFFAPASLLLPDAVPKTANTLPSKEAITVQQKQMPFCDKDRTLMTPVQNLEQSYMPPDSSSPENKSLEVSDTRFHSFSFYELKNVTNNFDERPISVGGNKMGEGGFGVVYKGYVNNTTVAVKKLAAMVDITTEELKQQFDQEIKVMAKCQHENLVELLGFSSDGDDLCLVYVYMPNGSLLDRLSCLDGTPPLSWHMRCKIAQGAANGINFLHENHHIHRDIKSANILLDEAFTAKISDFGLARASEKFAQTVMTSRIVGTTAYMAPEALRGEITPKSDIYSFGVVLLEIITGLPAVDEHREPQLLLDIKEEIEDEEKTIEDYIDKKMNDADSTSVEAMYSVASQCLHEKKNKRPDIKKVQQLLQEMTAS
Procedure, shortened: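 Quantification by ImageJ densitometry of Western blot bands: DC50 is the fitted concentration halving band intensity relative to DMSO. Percent remaining uses internal-control normalization, and degradation rate is its complement.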

[1] = target: T2, human Cereblon WT GST-tagged protein (Homo sapiens, UniProt Q96SW2); assay: CRBN binding, HTRF (CEREBLON BINDING kit); settings: Table II-1, CRBN binding, HTRF
T2 construct: purchased CISBIO 64BDCRBNPEH
Procedure, shortened: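 After 3 h at room temperature, emission at 665 and 620 nm was measured in a homogeneous time-resolved fluorescence format. Compounds competed with a Thalidomide-Re probe for GST-tagged wild-type human CRBN, which was labelled with a Eu anti-GST antibody.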

MV-4-11 = assay: CCK-8 proliferation, MV-4-11; format: cell-based, Human; settings: Homo sapiens, MV4-11; Table B10, compounds designed based on the IRAK4 inhibitors; MV-4-11 cells; read-out: Inhibitory activity (IC50, nM) on tumor cell proliferation, MV-4-11
Procedure, shortened: as §1

[2] = Table B10, compounds designed based on the IRAK4 inhibitors, MGC803 cells, read-out: Inhibitory activity (IC50, nM) on tumor cell proliferation, MGC803
[3] = CCK-8, 72 hours, read-out: Inhibitory activity (IC50) on tumor cell proliferation, MGC80-3

T2 sequence (Q96SW2 whole entry): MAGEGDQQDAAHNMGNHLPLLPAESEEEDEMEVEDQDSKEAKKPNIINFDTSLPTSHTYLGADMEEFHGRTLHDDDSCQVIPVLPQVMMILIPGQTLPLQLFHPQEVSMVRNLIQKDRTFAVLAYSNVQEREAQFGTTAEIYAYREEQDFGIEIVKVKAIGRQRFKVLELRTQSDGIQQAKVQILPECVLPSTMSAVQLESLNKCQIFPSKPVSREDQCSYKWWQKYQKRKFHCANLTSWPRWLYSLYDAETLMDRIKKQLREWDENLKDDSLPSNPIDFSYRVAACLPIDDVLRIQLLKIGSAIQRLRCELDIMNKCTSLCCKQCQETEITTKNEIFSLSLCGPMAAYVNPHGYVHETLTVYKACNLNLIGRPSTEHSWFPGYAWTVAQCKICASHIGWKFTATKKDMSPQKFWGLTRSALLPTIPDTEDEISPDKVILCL

Row | IC50 (CCRF-CEM; CCRF-CEM, CCK-8, 96 hours, read-out: Inhibitory activity (IC50) on tumor cell proliferation, CCRF-CEM) [nM] | IC50 (SW620) [nM] | IC50 (BXPC-3) [nM] | IC50 (MGC-803; [3]) [nM] | IC50 (THP-1) [nM] | SMILES | IC50 (Jurkat) [nM] | IC50 (H1299) [nM] | IC50 (LNcap) [nM] | IC50 (MM.1S) [nM] | IC50 (MGC-803; [2]) [nM] | IC50 (SR) [nM] | Degradation of substrate protein IRAK4 (substrate protein remaining %) (IRAK4) | IC50 (CCRF-CEM; Table B10, compounds designed based on the IRAK4 inhibitors, CCRF-CEM cells, read-out: Inhibitory activity (IC50, nM) on tumor cell proliferation, CCRF-CEM) [nM] | IC50 [1] [nM] | IC50 (MV-4-11) [nM]
1 | – | – | – | – | – | O=C1CCC(c2ccc(CN3CCN(c4ccc(-n5cc(NC(=O)c6coc(-c7ccnc(NCC(F)(F)F)c7)n6)c(C(F)F)n5)cc4)CC3)cc2)C(=O)N1 (stereo not drawn) [GT-04273, N-(3-(difluoromethyl)-1-(4-(4-(4-(2,6-dioxopiperidin-3-yl)benzyl)piperazin-1-yl)phenyl)-1H-pyrazol-4-yl)-2-(2-((2,2,2-trifluoroethyl)amino)pyridin-4-yl)oxazole-4-carboxamide] | 1 to 10 | 50 to 100 | 100 to 500 | 1 to 10 | 10 to 50 | 50 to 100 | – | – | – | –
2 | 500 to 1000 | 500 to 1000 | 50 to 100 | 500 to 1000 | – | Cc1ccc(-c2c(C)noc2C)cc1N(CC1CCN(Cc2ccc(C3CCC(=O)NC3=O)cc2)CC1)c1ccc(C2(C#N)CC2)cc1 (stereo not drawn) [GT-04839, 1-(4-((5-(3,5-dimethylisoxazol-4-yl)-2-methylphenyl)((1-(4-(2,6-dioxopiperidin-3-yl)benzyl)piperidin-4-yl)methyl)amino)phenyl)cyclopropane-1-carbonitrile] | – | – | – | – | – | – | – | – | – | –
3 | – | 100 to 500 | 10 to 50 | 100 to 500 | – | Cc1ccc(-c2c(C)noc2C)cc1N(CC1CCN(Cc2ccc(C3CCC(=O)NC3=O)c(F)c2)CC1)c1ccc(C2(C#N)CC2)cc1 (stereo not drawn) [GT-04840, 1-(4-((5-(3,5-dimethylisoxazol-4-yl)-2-methylphenyl)((1-(4-(2,6-dioxopiperidin-3-yl)-3-fluorobenzyl)piperidin-4-yl)methyl)amino)phenyl)cyclopropane-1-carbonitrile] | – | – | – | – | – | – | – | – | – | –
4 | – | – | 100 to 500 | – | 500 to 1000 | Cc1ccc(-c2c(C)noc2C)cc1N(CC1CCN(Cc2cccc(NC3CCC(=O)NC3=O)c2)CC1)c1ccc(C2(C#N)CC2)cc1 (stereo not drawn) [GT-04841, 1-(4-((5-(3,5-dimethylisoxazol-4-yl)-2-methylphenyl)((1-(3-((2,6-dioxopiperidin-3-yl)amino)benzyl)piperidin-4-yl)methyl)amino)phenyl)cyclopropane-1-carbonitrile] | – | – | – | – | – | – | – | – | – | –
5 | – | – | – | – | – | O=C1CCC(Nc2cccc(CN3CCN(c4ccc(-n5cc(NC(=O)c6coc(-c7ccnc(NCC8CC8)c7)n6)c(C(F)F)n5)cc4)CC3)c2)C(=O)N1 (stereo not drawn) [GT-04969, 2-(2-((cyclopropylmethyl)amino)pyridin-4-yl)-N-(3-(difluoromethyl)-1-(4-(4-(3-((2,6-dioxopiperidin-3-yl)amino)benzyl)piperazin-1-yl)phenyl)-1H-pyrazol-4-yl)oxazole-4-carboxamide] | 100 to 500 | 100 to 500 | – | 100 to 500 | 100 to 500 | 100 to 500 | A (A is defined as 0% ≤ substrate protein remaining % ≤ 80%) | – | – | –
6 | – | – | – | – | – | O=C1CCN(c2ccc(CN3CCN(c4ccc(-n5cc(NC(=O)c6coc(-c7ccnc(NCC8CC8)c7)n6)c(C(F)F)n5)cc4)CC3)cn2)C(=O)N1 [GT-04970, 2-(2-((cyclopropylmethyl)amino)pyridin-4-yl)-N-(3-(difluoromethyl)-1-(4-(4-((6-(2,4-dioxotetrahydropyrimidin-1(2H)-yl)pyridin-3-yl)methyl)piperazin-1-yl)phenyl)-1H-pyrazol-4-yl)oxazole-4-carboxamide] | 100 to 500 | 100 to 500 | – | 50 to 100 | 50 to 100 | 50 to 100 | A (A is defined as 0% ≤ substrate protein remaining % ≤ 80%) | – | – | –
7 | – | – | – | – | – | O=C1CCC(c2ccc(CN3CCN(c4ccc5c(c4)nc(NC(=O)c4cccc(C(F)(F)F)c4)n5C4CCC(CO)CC4)CC3)cc2)C(=O)N1 (stereo not drawn) [GT-04981, N-(5-(4-(4-(2,6-dioxopiperidin-3-yl)benzyl)piperazin-1-yl)-1-((1s,4s)-4-(hydroxymethyl)cyclohexyl) -1H-benzo[d]imidazol-2-yl)-3-(trifluoromethyl)benzamide] | 500 to 1000 | 500 to 1000 | – | 100 to 500 | 500 to 1000 | 100 to 500 | A (A is defined as 0% ≤ substrate protein remaining % ≤ 80%) | – | – | –
8 | – | – | – | – | – | O=C1CCN(c2ccc(CN3CCN(c4ccc5c(c4)nc(NC(=O)c4cccc(C(F)(F)F)c4)n5[C@H]4CC[C@@H](CO)CC4)CC3)cc2)C(=O)N1 [GT-04982, N-(5-(4-(4-(2,4-dioxotetrahydropyrimidin-1(2H)-yl)benzyl)piperazin-1-yl)-1-((1s,4s)-4-(hydroxymethyl)cyclohexyl) -1H-benzo[d]imidazol-2-yl)-3-(trifluoromethyl)benzamide] | 100 to 500 | 100 to 500 | – | 50 to 100 | 100 to 500 | 100 to 500 | A (A is defined as 0% ≤ substrate protein remaining % ≤ 80%) | – | – | –
9 | – | – | – | – | – | O=C1CCN(c2ccc(CN3CCN(c4ccc5c(c4)nc(NC(=O)c4cccc(C(F)(F)F)c4)n5[C@H]4CC[C@@H](CO)CC4)CC3)nc2)C(=O)N1 [GT-04986, N-(5-(4-((5-(2,4-dioxotetrahydropyrimidin-1(2H)-yl)pyridin-2-yl)methyl)piperazin-1-yl)-1-((1s,4s)-4-(hydroxymethyl)cyclohexyl) -1H-benzo[d]imidazol-2-yl)-3-(trifluoromethyl)benzamide] | 100 to 500 | 100 to 500 | – | 100 to 500 | 100 to 500 | 100 to 500 | A (A is defined as 0% ≤ substrate protein remaining % ≤ 80%) | – | – | –
10 | – | – | – | – | – | CC[C@@H]1[C@H](F)C(=O)N[C@@H]1COc1nccc2cc(C(N)=O)c(OC)cc12 [PF06650833, reference compound] | > 10000 | 5000 to 10000 | > 10000 | > 10000 | 5000 to 10000 | 1000 to 5000 | – | 5000 to 10000 | > 10000 | 1000 to 5000
